Patent US12410208B2, “(2-acetamidyl)thio-beta-D-galactopyranoside derivatives” (Idorsia Pharmaceuticals Ltd, priority 2020, dated 2025)
pIC50: −log10 of the molar value. Like-named read-outs stand apart in the source and are kept apart here.

Legend:
[1] = molecular target: biotinylated human Gal-3 (hGal-3) (Homo sapiens, UniProt P17931); test: Competitive binding assay: biotinylated hGal-3 binding to microplate-adsorbed asialofetuin (ASF), spectrophotometric
Description: If not explicitly mentioned otherwise, the inhibition data refer to the binding of biotinylated human Gal-3 (hGal-3).
(§1) Biological Assay Evaluation of Compound Inhibitory Activity (IC50)
The inhibitory activity of compounds is determined in competitive binding assays.
Briefly, compounds are serially diluted in DMSO (working dilutions).
(§2) Plates are incubated for 3 hours at 4° C., then washed with cold assay buffer (3×50 uL), incubated for 1 hour with 25 μL/well of a streptavidin-peroxidase solution (diluted in assay buffer to 80 ng/mL) at 4° C., followed by further washing steps with assay buffer (3×50 uL). Finally, 25 μL/well of ABTS substrate is added.
(§3) The calculated IC50 values may fluctuate depending on the daily assay performance. Fluctuations of this kind are known to those skilled in the art. IC50 values from several measurements are given as mean values.

human Gal-1 (hGal-1) = human Gal-1 (hGal-1) (Homo sapiens, UniProt P09382); test: Competitive binding assay: biotinylated hGal-1 binding to microplate-adsorbed asialofetuin (ASF), spectrophotometric; conditions: hGal-1 binding to asialofetuin; Table 15; R and S epimers of selected Examples also listed; read-out: IC50 (Galectin-1 inhibition)
Description: as §1
The inhibitory activity of compounds is determined in competitive binding assays. This spectrophotometric assay measures the binding of biotinylated human Gal-3 (hGal-3) or human Gal-1 (hGal-1), respectively, to a microplate-adsorbed glycoprotein, asialofetuin (ASF) (Proc Natl Acad Sci USA. 2013 Mar. 26; 110(13):5052-7.).
Briefly, compounds are serially diluted in DMSO (working dilutions). ASF-coated 384well plates are supplemented with 22.8 μL/well of biotinylated hGal-3 or hGal-1 in assay buffer (i.e. 300-1000 ng/mL biotinylated hGal-3 or hGal-1) to which 1.2 μL of compound working dilutions are added and mixed.
as §2, §3

[2] = Gal-3 inhibition, Table 3, read-out: IC50
[3] = Table 6, hGal-3, read-out: IC50 (Gal-3 inhibition)
[4] = Gal-3 inhibition, Table 5, read-out: IC50

Chain of human Gal-1 (hGal-1) (P09382 whole entry): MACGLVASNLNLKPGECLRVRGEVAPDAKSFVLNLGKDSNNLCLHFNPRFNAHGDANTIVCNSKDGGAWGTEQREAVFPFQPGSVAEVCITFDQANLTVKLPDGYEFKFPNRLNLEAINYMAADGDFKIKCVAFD
Chain of biotinylated human Gal-3 (hGal-3) (P17931 whole entry): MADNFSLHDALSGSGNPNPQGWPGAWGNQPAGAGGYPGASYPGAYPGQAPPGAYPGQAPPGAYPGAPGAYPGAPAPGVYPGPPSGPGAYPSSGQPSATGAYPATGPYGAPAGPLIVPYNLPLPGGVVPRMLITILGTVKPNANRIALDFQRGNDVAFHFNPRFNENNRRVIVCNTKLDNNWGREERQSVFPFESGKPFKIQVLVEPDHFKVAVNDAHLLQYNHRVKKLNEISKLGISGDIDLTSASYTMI

pIC50 [1, 2]	pIC50 (human Gal-1 (hGal-1))	pIC50 [1, 3]	pIC50 [1, 4]	SMILES
7.15	6.62	–	–	CCN(C)C(=O)[C@@H](S[C@@H]1O[C@H](CO)[C@H](O)[C@H](n2cc(-c3cc(F)c(F)c(F)c3)nn2)[C@H]1O)C(C)(C)O [Example 2.31.203S., (S)-2-(((2S,3R,4S,5R,6R)-3,5-Dihydroxy-6-(hydroxymethyl)-4-(4-(3,4,5-trifluorophenyl)-1H-1,2,3-triazol-1-yl)tetrahydro-2H-pyran-2-yl)thio)-N-ethyl-3-hydroxy-N,3-dimethylbutanamide]
6.85	5.55	–	–	CC1CCN1C(=O)C(S[C@@H]1O[C@H](CO)[C@H](O)[C@H](n2cc(-c3cc(F)c(F)c(F)c3)nn2)[C@H]1O)C(C)(C)O (stereo partly drawn) [Example 2.31.204., 2-(((2S,3R,4S,5R,6R)-3,5-Dihydroxy-6-(hydroxymethyl)-4-(4-(3,4,5-trifluorophenyl)-1H-1,2,3-triazol-1-yl)tetrahydro-2H-pyran-2-yl)thio)-3-hydroxy-3-methyl-1-(2-methylazetidin-1-yl)butan-1-one]
6.70	5.85	–	–	CC(C)(O)C(S[C@@H]1O[C@H](CO)[C@H](O)[C@H](n2cc(-c3cc(F)c(F)c(F)c3)nn2)[C@H]1O)C(=O)N1CCC1 (stereo partly drawn) [Example 2.31.206., 1-(Azetidin-1-yl)-2-(((2S,3R,4S,5R,6R)-3,5-dihydroxy-6-(hydroxymethyl)-4-(4-(3,4,5-trifluorophenyl)-1H-1,2,3-triazol-1-yl)tetrahydro-2H-pyran-2-yl)thio)-3-hydroxy-3-methylbutan-1-one]
–	6.24	7.22	–	CN(Cc1ccccc1)C(=O)C(S[C@@H]1O[C@H](CO)[C@H](O)[C@H](n2cc(-c3cc(F)c(F)c(F)c3)nn2)[C@H]1O)C(C)(C)O (stereo partly drawn) [Example 2.31.207., N-Benzyl-2-(((2S,3R,4S,5R,6R)-3,5-dihydroxy-6-(hydroxymethyl)-4-(4-(3,4,5-trifluorophenyl)-1H-1,2,3-triazol-1-yl)tetrahydro-2H-pyran-2-yl)thio)-3-hydroxy-N,3-dimethylbutanamide]
–	7.52	7.15	–	CC(C)(O)C(S[C@@H]1O[C@H](CO)[C@H](O)[C@H](n2cc(-c3cc(F)c(F)c(F)c3)nn2)[C@H]1O)C(=O)N1CCCCC1 (stereo partly drawn) [Example 2.31.208., 2-(((2S,3R,4S,5R,6R)-3,5-Dihydroxy-6-(hydroxymethyl)-4-(4-(3,4,5-trifluorophenyl)-1H-1,2,3-triazol-1-yl)tetrahydro-2H-pyran-2-yl)thio)-3-hydroxy-3-methyl-1-(piperidin-1-yl)butan-1-one]
–	5.77	6.72	–	CN(Cc1cn(C)cn1)C(=O)C(S[C@@H]1O[C@H](CO)[C@H](O)[C@H](n2cc(-c3cc(F)c(F)c(F)c3)nn2)[C@H]1O)C(C)(C)O (stereo partly drawn) [Example 2.31.215., 2-(((2S,3R,4S,5R,6R)-3,5-Dihydroxy-6-(hydroxymethyl)-4-(4-(3,4,5-trifluorophenyl)-1H-1,2,3-triazol-1-yl)tetrahydro-2H-pyran-2-yl)thio)-3-hydroxy-N,3-dimethyl-N-((1-methyl-1H-imidazol-4-yl)methyl)butanamide]
–	6.66	7.52	–	CN(CC1CC1)C(=O)C(S[C@@H]1O[C@H](CO)[C@H](O)[C@H](n2cc(-c3cc(F)c(F)c(F)c3)nn2)[C@H]1O)C(C)(C)O (stereo partly drawn) [Example 2.31.218., N-(Cyclopropylmethyl)-2-(((2S,3R,4S,5R,6R)-3,5-dihydroxy-6-(hydroxymethyl)-4-(4-(3,4,5-trifluorophenyl)-1H-1,2,3-triazol-1-yl)tetrahydro-2H-pyran-2-yl)thio)-3-hydroxy-N,3-dimethylbutanamide]
–	5.78	6.17	–	CN(CC(C)(C)C)C(=O)C(S[C@@H]1O[C@H](CO)[C@H](O)[C@H](n2cc(-c3cc(F)c(F)c(F)c3)nn2)[C@H]1O)C(C)(C)O (stereo partly drawn) [Example 2.31.228., 2-(((2S,3R,4S,5R,6R)-3,5-Dihydroxy-6-(hydroxymethyl)-4-(4-(3,4,5-trifluorophenyl)-1H-1,2,3-triazol-1-yl)tetrahydro-2H-pyran-2-yl)thio)-3-hydroxy-N,3-dimethyl-N-neopentylbutanamide]
–	6.10	6.96	–	COCCN(C)C(=O)C(S[C@@H]1O[C@H](CO)[C@H](O)[C@H](n2cc(-c3cc(F)c(F)c(F)c3)nn2)[C@H]1O)C(C)(C)O (stereo partly drawn) [Example 2.31.229., 2-(((2S,3R,4S,5R,6R)-3,5-Dihydroxy-6-(hydroxymethyl)-4-(4-(3,4,5-trifluorophenyl)-1H-1,2,3-triazol-1-yl)tetrahydro-2H-pyran-2-yl)thio)-3-hydroxy-N-(2-methoxyethyl)-N,3-dimethylbutanamide]
–	5.90	6.96	–	CN(CCN1CCOCC1)C(=O)C(S[C@@H]1O[C@H](CO)[C@H](O)[C@H](n2cc(-c3cc(F)c(F)c(F)c3)nn2)[C@H]1O)C(C)(C)O (stereo partly drawn) [Example 2.31.230., 2-(((2S,3R,4S,5R,6R)-3,5-Dihydroxy-6-(hydroxymethyl)-4-(4-(3,4,5-trifluorophenyl)-1H-1,2,3-triazol-1-yl)tetrahydro-2H-pyran-2-yl)thio)-3-hydroxy-N,3-dimethyl-N-(2-morpholinoethyl)butanamide]
–	5.72	6.31	–	CCN(C)C(=O)C(S[C@@H]1O[C@H](CO)[C@H](O)[C@H](n2cc(-c3cc(F)c(F)c(F)c3)nn2)[C@H]1O)C(O)(CC)CC (stereo partly drawn) [Example 2.32.203., 2-(((2S,3R,4S,5R,6R)-3,5-Dihydroxy-6-(hydroxymethyl)-4-(4-(3,4,5-trifluorophenyl)-1H-1,2,3-triazol-1-yl)tetrahydro-2H-pyran-2-yl)thio)-N,3-diethyl-3-hydroxy-N-methylpentanamide]
–	4.51	5.34	–	CCN(C)C(=O)[C@H](S[C@@H]1O[C@H](CO)[C@H](O)[C@H](n2cc(-c3cc(F)c(F)c(F)c3)nn2)[C@H]1O)C(O)(CC)CC [Example 2.32.203R., (R)-2-(((2S,3R,4S,5R,6R)-3,5-Dihydroxy-6-(hydroxymethyl)-4-(4-(3,4,5-trifluorophenyl)-1H-1,2,3-triazol-1-yl)tetrahydro-2H-pyran-2-yl)thio)-N,3-diethyl-3-hydroxy-N-methylpentanamide]
–	6.14	6.62	–	CCN(C)C(=O)[C@@H](S[C@@H]1O[C@H](CO)[C@H](O)[C@H](n2cc(-c3cc(F)c(F)c(F)c3)nn2)[C@H]1O)C(O)(CC)CC [Example 2.32.203S., (S)-2-(((2S,3R,4S,5R,6R)-3,5-Dihydroxy-6-(hydroxymethyl)-4-(4-(3,4,5-trifluorophenyl)-1H-1,2,3-triazol-1-yl)tetrahydro-2H-pyran-2-yl)thio)-N,3-diethyl-3-hydroxy-N-methylpentanamide]
–	5.95	6.15	–	CCC(O)(CC)C(S[C@@H]1O[C@H](CO)[C@H](O)[C@H](n2cc(-c3cc(F)c(F)c(F)c3)nn2)[C@H]1O)C(=O)N(C)CC1CC1 (stereo partly drawn) [Example 2.32.218., N-(Cyclopropylmethyl)-2-(((2S,3R,4S,5R,6R)-3,5-dihydroxy-6-(hydroxymethyl)-4-(4-(3,4,5-trifluorophenyl)-1H-1,2,3-triazol-1-yl)tetrahydro-2H-pyran-2-yl)thio)-3-ethyl-3-hydroxy-N-methylpentanamide]
–	5.69	6.44	–	CCC(O)(CC)C(S[C@@H]1O[C@H](CO)[C@H](O)[C@H](n2cc(-c3cc(F)c(F)c(F)c3)nn2)[C@H]1O)C(=O)N(C)CC(C)(C)F (stereo partly drawn) [Example 2.32.222., 2-(((2S,3R,4S,5R,6R)-3,5-Dihydroxy-6-(hydroxymethyl)-4-(4-(3,4,5-trifluorophenyl)-1H-1,2,3-triazol-1-yl)tetrahydro-2H-pyran-2-yl)thio)-3-ethyl-N-(2-fluoro-2-methylpropyl)-3-hydroxy-N-methylpentanamide]
–	5.38	–	5.84	CCN(C)C(=O)[C@H](S[C@@H]1O[C@H](CO)[C@H](O)[C@H](n2cc(-c3cc(F)c(F)c(F)c3)nn2)[C@H]1O)C1(O)CC(F)(F)C1 [Example 2.33.203R., (R)-2-(3,3-Difluoro-1-hydroxycyclobutyl)-2-(((2S,3R,4S,5R,6R)-3,5-dihydroxy-6-(hydroxymethyl)-4-(4-(3,4,5-trifluorophenyl)-1H-1,2,3-triazol-1-yl)tetrahydro-2H-pyran-2-yl)thio)-N-ethyl-N-methylacetamide]
–	6.96	–	7.30	CCN(C)C(=O)[C@@H](S[C@@H]1O[C@H](CO)[C@H](O)[C@H](n2cc(-c3cc(F)c(F)c(F)c3)nn2)[C@H]1O)C1(O)CC(F)(F)C1 [Example 2.33.203S., (S)-2-(3,3-Difluoro-1-hydroxycyclobutyl)-2-(((2S,3R,4S,5R,6R)-3,5-dihydroxy-6-(hydroxymethyl)-4-(4-(3,4,5-trifluorophenyl)-1H-1,2,3-triazol-1-yl)tetrahydro-2H-pyran-2-yl)thio)-N-ethyl-N-methylacetamide]
